Like-named read-outs stand apart in the source and are kept apart here. One block for each molecule: values may come before it.
Experiments:
[1] = amide bond, 13-membered ring, DMF
[2] = molecular target: CFTR (Homo sapiens, UniProt P13569); experiment: Membrane potential dye, Enteroid Assay A; type: cell-based; conditions: for Ent. A Max Activity: chloride transport as % of triple combination control (Enteroid Assay A); for EC50: human enteroid cells, 18-24 hours, acute 10 μM forskolin and 300 nM ivacaftor, read-out: Ent. A EC50
CFTR (Homo sapiens, UniProt P13569), sequence (P13569 with tags, fused parts or gaps DEL508-508): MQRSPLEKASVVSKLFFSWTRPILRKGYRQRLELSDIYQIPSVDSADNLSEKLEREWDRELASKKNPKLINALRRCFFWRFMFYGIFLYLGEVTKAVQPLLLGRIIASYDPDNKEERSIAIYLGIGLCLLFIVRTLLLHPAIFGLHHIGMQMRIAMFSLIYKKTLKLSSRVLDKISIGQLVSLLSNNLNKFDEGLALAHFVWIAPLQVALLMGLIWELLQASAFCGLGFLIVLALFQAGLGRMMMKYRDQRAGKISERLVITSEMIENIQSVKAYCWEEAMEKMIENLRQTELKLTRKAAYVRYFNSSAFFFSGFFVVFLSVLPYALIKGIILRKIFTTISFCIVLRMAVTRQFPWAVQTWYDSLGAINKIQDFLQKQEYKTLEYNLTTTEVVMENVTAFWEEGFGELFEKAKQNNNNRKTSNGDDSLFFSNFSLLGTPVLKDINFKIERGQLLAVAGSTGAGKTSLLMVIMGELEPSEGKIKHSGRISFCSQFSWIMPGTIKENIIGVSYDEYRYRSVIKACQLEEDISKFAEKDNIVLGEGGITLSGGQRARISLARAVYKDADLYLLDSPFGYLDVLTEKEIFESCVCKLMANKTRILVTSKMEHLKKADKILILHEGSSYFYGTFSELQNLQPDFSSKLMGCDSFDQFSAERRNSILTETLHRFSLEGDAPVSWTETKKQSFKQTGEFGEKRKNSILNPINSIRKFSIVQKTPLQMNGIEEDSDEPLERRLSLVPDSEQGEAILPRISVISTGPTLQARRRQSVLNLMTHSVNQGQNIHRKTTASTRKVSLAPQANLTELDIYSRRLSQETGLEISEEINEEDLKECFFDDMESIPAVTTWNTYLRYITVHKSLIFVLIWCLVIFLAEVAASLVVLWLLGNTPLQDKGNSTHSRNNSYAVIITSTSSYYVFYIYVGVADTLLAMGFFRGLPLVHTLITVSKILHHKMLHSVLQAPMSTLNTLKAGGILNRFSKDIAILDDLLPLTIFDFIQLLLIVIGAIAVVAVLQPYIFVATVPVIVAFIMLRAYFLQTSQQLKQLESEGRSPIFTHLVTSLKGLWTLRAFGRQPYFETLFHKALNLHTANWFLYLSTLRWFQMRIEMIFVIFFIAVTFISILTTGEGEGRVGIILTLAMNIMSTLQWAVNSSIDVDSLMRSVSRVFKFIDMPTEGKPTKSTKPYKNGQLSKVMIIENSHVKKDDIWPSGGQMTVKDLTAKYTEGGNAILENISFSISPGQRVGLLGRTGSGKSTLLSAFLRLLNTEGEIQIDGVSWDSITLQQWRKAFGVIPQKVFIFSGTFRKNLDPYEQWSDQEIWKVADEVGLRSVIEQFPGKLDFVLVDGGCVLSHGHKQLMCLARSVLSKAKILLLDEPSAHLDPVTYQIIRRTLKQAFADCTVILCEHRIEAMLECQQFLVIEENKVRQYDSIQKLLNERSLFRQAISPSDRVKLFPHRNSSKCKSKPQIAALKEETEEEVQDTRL
Method in brief: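 Human intestinal enteroids incubated 18-24 h at 37 °C with test compound, then loaded with 20 μM methyl oxonol (with CaCC inhibitors). Chloride transport triggered in chloride-free buffer with 10 μM forskolin, 100 μM IBMX, 300 nM Compound III; fluorescence read 15 min, expressed as % of a triple-combination corrector/potentiator control.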

[3] = molecular target: T1, CFTR (Homo sapiens, UniProt P13569, DEL508-508); experiment: HBE2 assay: Ussing chamber assay of CFTR-mediated short-circuit currents; type: cell-based; conditions: F508del/MF-HBE cells, with 44 nM potentiator, 18-24 hours, 20% human serum; for Emax: read-out: HBE2 Max activity (%)
T1 construct: endogenous in cells; host or cells: primary human bronchial epithelial cells from CF subjects (F508del/MF-HBE), differentiated at air-liquid interface
T1 sequence (P13569 with tags, fused parts or gaps DEL508-508): as above
Method in brief: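 F508del/MF-HBE cultured >14 days at air-liquid interface, mounted in Ussing chambers; transepithelial short-circuit current recorded under voltage clamp (Vhold=0 mV) at 37 °C. CFTR-mediated ISC (μA/cm^2) taken as peak forskolin response relative to steady-state current after inhibition; corrector activity assessed this way.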

[4] = molecular target: T1, CFTR; experiment: HBE assay: Ussing chamber assay of CFTR-mediated short-circuit currents; type: cell-based; conditions: for EC50 / Emax: Table 11; for EC50: read-out: HBE EC50; for Emax: read-out: HBE Max Activity (%)
Method in brief: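 CFTR-mediated Isc (μA/cm²) equals the peak response to apical 20 μM forskolin minus the residual after a 20 μM each BPO/GlyH-101/CFTR inhibitor 172 cocktail, recorded in Ussing chambers at Vhold 0 mV, 37 °C, pH 7.4, with 30 μM apical amiloride. Cells were F508del/MF HBE cultures preincubated 18-24 h with corrector (concentration range or 10 μM) plus 1 μM ivacaftor in 20% human serum.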

[5] = HBE assay, 10 μM, read-out: HBE Activity at 10 μM (%)

- Ent. A Max Activity ([2]; Table 6): +++ (+++ is >60%)
- EC50 ([2]; Table 6): < 1000 nM
Structure (SMILES): Cc1cccc(C)c1-c1cc2nc(n1)NS(=O)(=O)c1cccc(c1)C(=O)N(CCC(C)(C)C)[C@H](CC(C)(C)C)CO2 [Compound 138, (11R)-12-(3,3-Dimethylbutyl)-6-(2,6-dimethylphenyl)-11-(2,2-dimethylpropyl)-2,2-dioxo-9-oxa-2λ^6-thia-3,5,12,19-tetrazatricyclo[12.3.1.14,8]nonadeca-1(18),4(19),5,7,14,16-hexaen-13-one]
- ring closure, yield after HPLC ([1]; from Cc1cccc(C)c1-c1cc(OC[C@@H](CC(C)(C)C)NCCC(C)(C)C)nc(NS(=O)(=O)c2cccc(C(=O)O)c2)n1, HATU/DIEA, 8.4 mM, 2.0 h): 39%

- Ent. A Max Activity ([2]; Table 7): +++ (+++ is >60%)
- EC50 ([2]; Table 7): < 1000 nM
Structure (SMILES): Cc1cccc(C)c1-c1cc2nc(n1)NS(=O)(=O)c1cccc(c1)C(=O)N(Cc1cn(C)nc1C(C)(C)C)[C@H](CC(C)C)CO2 [Compound 83, (11R)-12-[(3-tert-Butyl-1-methyl-pyrazol-4-yl)methyl]-6-(2,6-dimethylphenyl)-11-isobutyl-2,2-dioxo-9-oxa-2λ^6-thia-3,5,12,19-tetrazatricyclo[12.3.1.14,8]nonadeca-1(18),4(19),5,7,14,16-hexaen-13-one]
- ring closure, yield after HPLC ([1]; from Cc1cccc(C)c1-c1cc(OC[C@@H](CC(C)C)NCc2cn(C)nc2C(C)(C)C)nc(NS(=O)(=O)c2cccc(C(=O)O)c2)n1, HATU/DIEA, 20.4 mM, 25.0 °C, 18.0 h): 32%

- HBE2 Activity at 3 μM (%) [3]: +++ (+++ is >60+)
- EC50 [3]: < 1000 nM
- Emax [3]: > 60%
Structure (SMILES): Cc1cccc(C)c1-c1cc2nc(n1)NS(=O)(=O)c1cccc(c1)C(=O)N(Cc1cncc(N(C)C3CCC3)n1)[C@H](CCC(C)(C)C)CO2 [Compound 1319, (11R)-12-[[6-[Cyclobutyl(methyl)amino]pyrazin-2-yl]methyl]-11-(3,3-dimethylbutyl)-6-(2,6-dimethylphenyl)-2,2-dioxo-9-oxa-2λ^6-thia-3,5,12,19-tetrazatricyclo[12.3.1.14,8]nonadeca-1(18),4(19),5,7,14,16-hexaen-13-one]
- ring closure, yield after HPLC ([1]; from Cc1cccc(C)c1-c1cc(OC[C@@H](CCC(C)(C)C)NCc2cncc(N(C)C3CCC3)n2)nc(NS(=O)(=O)c2cccc(C(=O)O)c2)n1, CDMT/NMM, 26.4 mM, 13.1 h): 44%

- Ent. A Max Activity ([2]; Table 6): +++ (+++ is >60%)
- EC50 ([2]; Table 6): < 1000 nM
Structure (SMILES): Cc1cccc(C)c1-c1cc2nc(n1)NS(=O)(=O)c1cccc(c1)C(=O)N(C)CC(c1ccc(C(C)(C)C)cn1)O2 (stereo not shown) [Compound 101, 10-(5-tert-butyl-2-pyridyl)-6-(2,6-dimethylphenyl)-12-methyl-2,2-dioxo-9-oxa-2λ^6-thia-3,5,12,19-tetrazatricyclo[12.3.1.14,8]nonadeca-1(18),4(19),5,7,14,16-hexaen-13-one]
- ring closure, yield after HPLC ([1]; from CNCC(Oc1cc(-c2c(C)cccc2C)nc(NS(=O)(=O)c2cccc(C(=O)O)c2)n1)c1ccc(C(C)(C)C)cn1, HATU/DIEA, 10.5 mM, 25.0 °C, 0.083 h, 2 steps): 55%

- Ent. A Max Activity ([2]; Table 6): +++ (+++ is >60%)
- EC50 ([2]; Table 6): < 1000 nM
Structure (SMILES): Cc1cccc(C)c1-c1cc2nc(n1)NS(=O)(=O)c1cccc(c1)C(=O)N(C)CC(c1ccc(C(C)(C)C)cc1)O2 (racemic) [Compound 10, 10-(4-tert-butylphenyl)-6-(2,6-dimethylphenyl)-12-methyl-2,2-dioxo-9-oxa-2λ^6-thia-3,5,12,19-tetrazatricyclo[12.3.1.14,8]nonadeca-1(18),4(19),5,7,14,16-hexaen-13-one]
- ring closure, yield after HPLC ([1]; from CNCC(Oc1cc(-c2c(C)cccc2C)nc(NS(=O)(=O)c2cccc(C(=O)O)c2)n1)c1ccc(C(C)(C)C)cc1, HATU/DIEA, 15.4 mM, 25.0 °C, 0.25 h, 2 steps): 19%

- activation at 10 µM [4, 5]: > 60%
- HBE2 Activity at 3 μM (%) [3]: +++ (+++ is >60+)
Structure (SMILES): Cc1cccc(C)c1-c1cc2nc(n1)NS(=O)(=O)c1cccc(c1)C(=O)N(Cc1ncc(N3CC(C)(C)C3)cn1)[C@H](CC1(C)CC1)CO2 [Compound 1307, (11R)-12-[[5-(3,3-Dimethylazetidin-1-yl)pyrimidin-2-yl]methyl]-6-(2,6-dimethylphenyl)-11-[(1-methylcyclopropyl)methyl]-2,2-dioxo-9-oxa-2λ^6-thia-3,5,12,19-tetrazatricyclo[12.3.1.14,8]nonadeca-1(18),4(19),5,7,14,16-hexaen-13-one]
- ring closure, yield after HPLC ([1]; from Cc1cccc(C)c1-c1cc(OC[C@@H](CC2(C)CC2)NCc2ncc(N3CC(C)(C)C3)cn2)nc(NS(=O)(=O)c2cccc(C(=O)O)c2)n1, CDMT/NMM, 24.2 mM, 3.0 h): 65%

- EC50 [4]: < 1000 nM
- Emax [4]: > 60%
Structure (SMILES): Cc1cccc(C)c1-c1cc2nc(n1)NS(=O)(=O)c1cccc(c1)C(=O)N(C[C@@H]1CN(C(=O)OC(C)(C)C)CCO1)[C@H](CC(C)(C)C)CO2 [Compound 141, tert-Butyl (2R)-2-[[(11R)-6-(2,6-dimethylphenyl)-11-(2,2-dimethylpropyl)-2,2,13-trioxo-9-oxa-2λ^6-thia-3,5,12,19-tetrazatricyclo[12.3.1.14,8]nonadeca-1(18),4(19),5,7,14,16-hexaen-12-yl]methyl]morpholine-4-carboxylate]
- ring closure, yield after HPLC ([1]; from Cc1cccc(C)c1-c1cc(OC[C@@H](CC(C)(C)C)NC[C@@H]2CN(C(=O)OC(C)(C)C)CCO2)nc(NS(=O)(=O)c2cccc(C(=O)O)c2)n1, CDMT/NMM, 26.4 mM): 69%

- activation at 10 µM ([4]; Table 10, at 10 μM, read-out: HBE activity at 10 (μM) (%)): > 60%
Structure (SMILES): Cc1cccc(C)c1-c1cc2nc(n1)NS(=O)(=O)c1cccc(c1)C(=O)N(Cc1cnn3ccccc13)[C@H](CC(C)(C)C)CO2 [Compound 139, (11R)-6-(2,6-Dimethylphenyl)-11-(2,2-dimethylpropyl)-12-({pyrazolo[1,5-a]pyridin-3-yl}methyl)-9-oxa-2λ^6-thia-3,5,12,19-tetraazatricyclo[12.3.1.14,8]nonadeca-1(17),4,6,8(19),14(18),15-hexaene-2,2,13-trione]
- ring closure, yield after HPLC ([1]; from Cc1cccc(C)c1-c1cc(OC[C@@H](CC(C)(C)C)NCc2cnn3ccccc23)nc(NS(=O)(=O)c2cccc(C(=O)O)c2)n1, HATU/DIEA, 29.4 mM, 4.0 h): 57%

- activation at 10 µM [4, 5]: > 60%
- HBE2 Activity at 3 μM (%) [3]: +++ (+++ is >60+)
- EC50 [3]: < 1000 nM
- Emax [3]: > 60%
Structure (SMILES): Cc1cccc(C)c1-c1cc2nc(n1)NS(=O)(=O)c1cccc(c1)C(=O)N(Cc1ncc(OC(C)C)cn1)[C@H](CC1(C)CC1)CO2 [Compound 1306, (11R)-6-(2,6-Dimethylphenyl)-12-[(5-isopropoxypyrimidin-2-yl)methyl]-11-[(1-methylcyclopropyl)methyl]-2,2-dioxo-9-oxa-2λ^6-thia-3,5,12,19-tetrazatricyclo[12.3.1.14,8]nonadeca-1(18),4(19),5,7,14,16-hexaen-13-one]
- ring closure, yield after HPLC ([1]; from Cc1cccc(C)c1-c1cc(OC[C@@H](CC2(C)CC2)NCc2ncc(OC(C)C)cn2)nc(NS(=O)(=O)c2cccc(C(=O)O)c2)n1, CDMT/NMM, 33.8 mM, 4.0 h): 53%

- EC50 [4]: 1000 to 3000 nM
- Emax [4]: > 60%
Structure (SMILES): Cc1cccc(C)c1-c1cc2nc(n1)NS(=O)(=O)c1cccc(c1)C(=O)N(Cc1ncc(N3CCC(C)(C)C3)cn1)[C@H](CC(C)(C)C)CO2 [Compound 119, (11R)-6-(2,6-Dimethylphenyl)-11-(2,2-dimethylpropyl)-12-[[5-(3,3-dimethylpyrrolidin-1-yl)pyrimidin-2-yl]methyl]-2,2-dioxo-9-oxa-2λ^6-thia-3,5,12,19-tetrazatricyclo[12.3.1.14,8]nonadeca-1(18),4(19),5,7,14,16-hexaen-13-one]
- ring closure, yield after HPLC ([1]; from 3-[[4-(2,6-dimethylphenyl)-6-[(2R)-2-[[5-(3,3-dimethylpyrrolidin-1-yl)pyrimidin-2-yl]methylamino]-4,4-dimethyl-pentoxy]pyrimidin-2-yl]sulfamoyl]benzoic acid (Dihydrochloride salt), CDMT/NMM, 29.4 mM): 47%

- HBE2 Activity at 3 μM (%) [3]: +++ (+++ is >60+)
Structure (SMILES): Cc1cccc(C)c1-c1cc2nc(n1)NS(=O)(=O)c1cccc(c1)C(=O)N(Cc1ncc(OC(C)C)cn1)[C@H](CC1(C)CCC1)CO2 [Compound 1317, (11R)-6-(2,6-Dimethylphenyl)-12-[(5-isopropoxypyrimidin-2-yl)methyl]-11-[(1-methylcyclobutyl)methyl]-2,2-dioxo-9-oxa-2λ6-thia-3,5,12,19-tetrazatricyclo[12.3.1.14,8]nonadeca-1(18),4(19),5,7,14,16-hexaen-13-one]
- ring closure, yield after HPLC ([1]; from Cc1cccc(C)c1-c1cc(OC[C@@H](CC2(C)CCC2)NCc2ncc(OC(C)C)cn2)nc(NS(=O)(=O)c2cccc(C(=O)O)c2)n1, CDMT/NMM, 12.9 mM, 22.0 h): 64%
